Usually pKd stands for −log10 of the Kd, conventionally taken in molar units. A word on the pIC50: it is the negative decadic logarithm of the IC50, by convention in mol/L. Read a high pIC50 as a small IC50.

In patent EP3057951B1, “METHYLENE LINKED QUINOLINYL MODULATORS OF ROR-GAMMA-T” (Janssen Pharmaceutica NV, priority 2013, dated 2015) one finds Kd, IC50 and inhibition data, which are given here for 18 compounds.

For test [1], the target named is T1, wild type human RORγt ligand binding domain (RORyt LBD) (Homo sapiens, UniProt P51449).
T1 construct: His-tag (N); TurboTEV protease cleavage site (ENLYFQG) (N); made in house; host or cells: E. coli (pHIS1, modified pET vector)
T1 sequence (P51449 258-518): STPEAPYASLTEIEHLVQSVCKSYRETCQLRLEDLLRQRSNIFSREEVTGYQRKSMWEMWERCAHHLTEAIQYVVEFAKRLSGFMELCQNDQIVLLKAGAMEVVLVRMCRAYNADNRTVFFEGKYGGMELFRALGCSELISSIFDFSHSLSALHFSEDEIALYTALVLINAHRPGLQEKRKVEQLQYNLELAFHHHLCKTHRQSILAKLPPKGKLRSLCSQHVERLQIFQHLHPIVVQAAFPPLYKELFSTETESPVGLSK
Put plainly: RORγt ThermoFluor assay (thermal shift, binding affinity KD). (In general: Differential scanning fluorimetry follows unfolding on heating by fluorescence.)

The target of test [2] is T2, wild type human RORγt LBD (Homo sapiens, UniProt P51449).
T2 construct: expressed in transfected cells; host or cells: HEK293T
T2 sequence (P51449 258-518): T1 sequence (P51449 258-518)
Kind of test: RORγt (LBD) Reporter Assay (GAL4-luciferase, HEK293T cells). Format: cell-based. To be noted: for inhibition at 6 µM: HEK-293T, read-out: RORγt (LBD) Reporter Assay, % inhibition @ 6 µM, 6 µM compound concentration. In general terms: A reporter such as luciferase makes a cellular process visible.

The mark [3] stands for this setting: HEK293T cells, value after the comma with ∼, > or < could not be included in the average.

pIC50, pKd: −log10 of the molar value. Where “and” joins values, the source holds several entries; their conditions need not be identical. Equal values may be shown once. Where a name gives a salt, the structure may show the parent alone. Read-outs that look alike come from different tables or passages of the source.

Take `CCCCc1nc2ccc(C(O)(c3cccnc3)c3cccc(F)c3)cc2c(Cl)c1Cc1ccc(-n2cccn2)cc1` (centres unmarked) [Example 60, (3-(4-(1H-Pyrazol-1-yl)benzyl)-2-butyl-4-chloroquinolin-6-yl)(3-fluorophenyl)(pyridin-3-yl)methanol•TFA]: the pKd in test [1] was 5.51. The pIC50 in test [2] (setting [3]) is 6.21 and ~5.70. In addition, the inhibition at 6 µM in test [2] is 83%.

With `COc1nc2ccc(C(O)(c3cccnc3)c3cccc(F)c3)cc2c(Cl)c1Cc1ccc(-n2cccn2)cc1` (centres unmarked) [Example 61, (3-(4-(1H-Pyrazol-1-yl)benzyl)4-chloro-2-methoxyquinolin-6-yl)(3-fluorophenyl)(pyridin-3-yl)methanol], the pKd in test [1] is 7.92. Moreover, the pIC50 in test [2] (setting [3]) was 7.08. Also, the inhibition at 6 µM in test [2] was found to be 99%.

For `COc1nc2ccc(C(O)(c3ccc(Cl)cc3)c3cccnc3)cc2c(Cl)c1Cc1ccc(-n2cccn2)cc1` (centres unmarked) [Example 62, (3-(4-(1H-pyrazol-1-yl)benzyl)4-chloro-2-methoxyquinolin-6-yl)(4-chlorophenyl)(pyridin-3-yl)methanol], the pKd in test [1] was 7.39. In addition, the pIC50 in test [2] (setting [3]) was 6.92. For the same compound, in test [2], the inhibition at 6 µM was found to be 107%.

Consider `COc1ccc(C(O)(c2cccnc2)c2ccc3nc(OC)c(Cc4ccc(-n5cccn5)cc4)c(Cl)c3c2)cc1` (centres unmarked) [Example 63], for which the pKd in test [1] was 7.17. Moreover, the pIC50 in test [2] (setting [3]) is 6.85. Moreover, the inhibition at 6 µM in test [2] is 99%.

In the case of `CC(=O)N1CCC(C(O)(c2ccc(F)cc2)c2ccc3nc(OC(F)F)c(Cc4cncnc4)c(OC(F)F)c3c2)CC1` (centres unmarked) [Example 72, 1-(4-((2,4-bis(Difluoromethoxy)-3-(pyrimidin-5-ylmethyl)quinolin-6-yl)(4-fluorophenyl)(hydroxy)methyl)piperidin-1-yl)ethanone], in test [1], the pKd was 5.96. This compound also gave a pIC50 in test [2] (setting [3]) of 5.92. Besides, in test [2], the inhibition at 6 µM was 53%.

For the compound `Cn1cncc1C(O)(c1ccc2nc(C(F)(F)F)c(Cc3ccccc3)c(Cl)c2c1)c1ccccn1` (centres unmarked) [Example 97, (3-Benzyl-4-chloro-2-(trifluoromethyl)quinolin-6-yl)(1-methyl-1H-imidazol-5-yl)(pyridin-2-yl)methanol•TFA], the pKd in test [1] is 7.17. In test [2] (setting [3]), this compound showed a pIC50 of 6.70. Further, the inhibition at 6 µM in test [2] came to 96%.

Turning to `Cn1cncc1C(O)(c1ccc(Cl)cc1)c1ccc2nc(C(F)(F)F)c(Cc3ccccc3)c(Cl)c2c1` (centres unmarked) [Example 100, (3-benzyl-4-chloro-2-(trifluoromethyl)quinolin-6-yl)(4-chlorophenyl)(1-methyl-1H-imidazol-5-yl)methanol•TFA], the pKd in test [1] is 7.60. This compound also showed a pIC50 in test [2] (setting [3]) of 6.66. Also, the inhibition at 6 µM in test [2] came out at 78%.

`Cn1cncc1C(O)(c1ccc(Cl)cc1)c1ccc2nc(C(F)(F)F)c(Cc3ccccc3)c(O)c2c1` (centres unmarked) [Example 102, 3-Benzyl-6-((4-chlorophenyl)(hydroxy)(1-methyl-1H-imidazol-5-yl)methyl)-2-(trifluoromethyl)quinolin4-ol•TFA]: the pKd in test [1] is 5.89. In test [2] (setting [3]), this compound gave a pIC50 of 5.72. In addition, the inhibition at 6 µM in test [2] stood at 94%.

For the compound `Cn1cncc1C(O)(c1ccc(Cl)cc1)c1ccc2nc(C(F)(F)F)c(Cc3ccccc3)c(C#N)c2c1` (centres unmarked) [Example 103, 3-Benzyl-6-((4-chlorophenyl)(hydroxy)(1-methyl-1H-imidazol-5-yl)methyl)-2-(trifluoromethyl)quinoline-4-carbonitrile•TFA], the pKd in test [1] is 8.03. In test [2] (setting [3]), this compound gave a pIC50 of 7.48. Also, in test [2], the inhibition at 6 µM stood at 81%.

Consider `Cn1cncc1C(O)(c1ccc(C#N)cc1)c1ccc2nc(C(F)(F)F)c(Cc3ccccc3)c(C#N)c2c1` (centres unmarked) [Example 104, 3-Benzyl-6-((4-cyanophenyl)(hydroxy)(1-methyl-1H-imidazol-5-yl)methyl)-2-(trifluoromethyl)quinoline-4-carbonitrile•TFA], for which the pKd in test [1] was 8.20. Also, the pIC50 in test [2] (setting [3]) is 7.72. For the same compound, in test [2], the inhibition at 6 µM amounted to 82%.

Take `Cn1cncc1C(O)(c1ccc(C(F)(F)F)nc1)c1ccc2nc(C(F)(F)F)c(Cc3ccccc3)c(Cl)c2c1` (centres unmarked) [Example 105, (3-Benzyl-4-chloro-2-(trifluoromethyl)quinolin-6-yl)(1-methyl-1H-imidazol-5-yl)(6-(trifluoromethyl)pyridin-3-yl)methanol•TFA]: in test [1], the pKd is 8.25. Further, the pIC50 in test [2] (setting [3]) was less than 5.22. Besides, in test [2], the inhibition at 6 µM was 38%.

`COc1c(Cc2ccccc2)c(C(F)(F)F)nc2ccc(C(O)(c3ccc(C(F)(F)F)nc3)c3cncn3C)cc12` (centres unmarked) [Example 106a, (3-Benzyl-4-methoxy-2-(trifluoromethyl)quinolin-6-yl)(1-methyl-1H-imidazol-5-yl)(6-(trifluoromethyl)pyridin-3-yl)methanol•TFA]: the pKd in test [1] is 7.32. Besides, the inhibition at 6 µM in test [2] is 84%.

As for `Cn1cncc1C(O)(c1ccc(C(F)(F)F)nc1)c1ccc2nc(C(F)(F)F)c(Cc3ccccc3)c(O)c2c1` (centres unmarked) [Example 107, 3-Benzyl-6-(hydroxy(1-methyl-1H-imidazol-5-yl)(6-(trifluoromethyl)pyridin-3-yl)methyl)-2-(trifluoromethyl)quinolin-4-ol•TFA], the pKd in test [1] was 5.47. This compound also gave a pIC50 in test [2] (setting [3]) of 5.25. In test [2], the inhibition at 6 µM is 57%.

Turning to `Cn1cncc1C(O)(c1ccc(C(F)(F)F)nc1)c1ccc2nc(C(F)(F)F)c(Cc3ccccc3)c(C#N)c2c1` (centres unmarked) [Example 108a, 3-Benzyl-6-(hydroxy(1-methyl-1H-imidazol-5-yl)(6-(trifluoromethyl)pyridin-3-yl)methyl)-2-(trifluoromethyl)quinoline-4-carbonitrile•TFA], the pKd in test [1] was 8.36. This compound also gave a pIC50 in test [2] (setting [3]) of 7.52. Besides, in test [2], the inhibition at 6 µM worked out at 90%.

As for `Cn1cncc1C(O)(c1ccc(C(F)(F)F)nc1)c1ccc2nc(Cl)c(Cc3ccccc3)c(Cl)c2c1` (centres unmarked) [Example 109, (3-Benzyl-2,4-dichloroquinolin-6-yl)(1-methyl-1H-imidazol-5-yl)(6-(trifluoromethyl)pyridin-3-yl)methanol•TFA], the pKd in test [1] is 7.85. In test [2] (setting [3]), this compound showed a pIC50 of approximately 5.40. For the same compound, the inhibition at 6 µM in test [2] is 80%.

`Cn1cc(-c2nc3ccc(C(O)(c4ccc(C(F)(F)F)nc4)c4cncn4C)cc3c(C#N)c2Cc2ccccc2)cn1` (centres unmarked) [Example 112a, 3-Benzyl-6-(hydroxy(1-methyl-1H-imidazol-5-yl)(6-(trifluoromethyl)pyridin-3-yl)methyl)-2-(1-methyl-1H-pyrazol-4-yl)quinoline-4-carbonitrile•TFA]: the pKd in test [1] is 5.18. The pIC50 in test [2] (setting [3]) was 6.00. Also, the inhibition at 6 µM in test [2] came out at 91%.

As for `COc1nc2ccc(C(O)(c3cnnn3C)C3CN(C(=O)OC(C)(C)C)C3)cc2c(Cl)c1Cc1ccc(C(F)(F)F)cc1` (centres unmarked) [Example 123, tert-Butyl-3-((4-chloro-2-methoxy-3-(4-(trifluoromethyl)benzyl)quinolin-6-yl)(hydroxy)(1-methyl-1H-1,2,3-triazol-5-yl)methyl)azetidine-1-carboxylate], in test [1], the pKd is 8.28. In test [2] (HEK293T cells), the pIC50 is 7.15 and the inhibition at 6 µM was 101%.

For `COc1nc2ccc(C(O)(c3cnnn3C)C3CNC3)cc2c(Cl)c1Cc1ccc(C(F)(F)F)cc1` (centres unmarked) [Example 124, Azetidin-3-yl(4-chloro-2-methoxy-3-(4-(trifluoromethyl)benzyl)quinolin-6-yl)(1-methyl-1H-1,2,3-triazol-5-yl)methanol], the pKd in test [1] was 6.62. In test [2] (HEK293T cells), the pIC50 was 6.17 and the inhibition at 6 µM amounted to 93%.
